Test results as given in US12616697B2, “Methods of treatment with myosin modulator” (MyoKardia, Inc., priority 2020, dated 2026).
Where “and” joins values, the source holds several entries; their conditions need not be identical. Equal values may be shown once.

What was measured:
[1] = system: adults with symptomatic oHCM; assay: PIONEER-OLE Phase 2 open-label extension study of mavacamten; type: in vivo
Method: All subjects were started on a dose of 5 mg QD.
To maximize safety, the starting dose will be 5 mg for all subjects. Subjects will return at Week 4 (±4 days) for a plasma PK sample to measure drug levels and to undergo echocardiography to determine LVOT gradient (at rest, after a Valsalva maneuver, and after exercise) and left ventricular ejection fraction (LVEF).
After Week 6, additional study visits will occur at Week 8 (±7 days), Week 12 (±7 days), and every 12 weeks (±7 days) thereafter. Subjects also will be contacted by phone in between clinic visits, at Week 18 and every 12 weeks thereafter. An end of study (EOS) visit will occur 12 weeks (±7 days) after the last administration of study drug. Visits (including the Screening visit which serves as the baseline) will entail recording vital signs, targeted physical examination, ECGs, safety laboratory tests, N-terminal pro b-type natriuretic peptide (NT-proBNP), adverse events (AEs), New York Heart Association (NYHA) functional class, Kansas City Cardiomyopathy Questionnaire (KCCQ) score, and concomitant medications. At Weeks 4, 8, 24, 36, 48, 60, 72, 96, 120, 144, 156/early termination (ET), and 168/EOS, a predose blood sample for assessment of drug concentration will be obtained. A standard TTE (including but not limited to assessment of LVOT gradient at rest and after Valsalva) will be performed at baseline, at Weeks 4, 8, 12, 24, 36, 48, 72, 96, 120, 144, 156/ET, and 168/EOS. In addition, a stress echocardiogram (with assessment of LVOT gradient post-exercise) will also be performed at baseline, Weeks 4, 48, 72, 156/ET, and 168/EOS.
The study endpoints include safety, tolerability, and select measures of efficacy using individualized dosing. Key measurements include LVOT gradient, LVEF, NT-proBNP.
• 1. Frequency and severity of treatment-emergent AEs and SAEs, • 2. Frequency of cardiovascular (CV) death, • 3. Frequency of sudden death, • 4. Frequency of CV hospitalization, • 5. Frequency of heart failure requiring the initiation of oral loop diuretics or the administration of intravenous loop diuretics, • 6. Frequency of myocardial infarction, • 7. Frequency of ventricular arrhythmias (ventricular tachycardia, ventricular fibrillation, ventricular flutter, torsade de pointe), • 8. Frequency of syncope, • 9. Frequency of seizures, • 10. Frequency of stroke, • 11. Frequency of LVEF≤45 as measured by echocardiography, • 12. QT and QTcF intervals over time. Efficacy and Pharmacodynamics Include: • 1. Post-exercise, post-Valsalva, and resting LVOT gradient over time, • 2. NYHA functional class over time, • 3. KCCQ scores over time, • 4. NT-proBNP over time, • 5. Frequency of septal reduction therapy.

[2] = system: Yucatan mini-pigs with a heterozygous MYH7 R403Q mutation; assay: Chronic MYK-581 in mini-pig genetic model of non-obstructed HCM (cMR imaging, invasive hemodynamics, dobutamine challenge); type: in vivo; conditions: corrected for plasma protein binding and potency differences MYK-581 vs mavacamten
Method: The mini-pigs were treated for at least 12 weeks and were evaluated as shown in Schematic 1 below. […] After ˜14 weeks of treatment, all pigs underwent in vivo cMR imaging for the assessment of LV function and geometry, as well as of myocardial composition via of Late Gadolinium Enhancement (LGE) and T1 mapping techniques including extracellular volume (ECV) assessments. In addition, a subset of animals (MYK: n=6, CTRL: n=5) also underwent terminal invasive hemodynamics assessments, including cardiac output (CO, via thermodilution), load-independent systolic/diastolic function (via LV pressure-volume relationships), and β-adrenergic (β-AR) cardiac reserve (via dobutamine at 5 ug/kg/min IV).
The mini-pig model can be obtained following the method disclosed in a presentation entitled “A Minipig Genetic Model of Hypertrophic Cardiomyopathy Uncovers the Pathophysiological Mechanisms of Disease Evolution”, by E. Green et al., at University of Iowa, Carver College of Medicine.

[3] = system: conscious fully-instrumented dogs with normal cardiac function; assay: Cardiac reserve under acute β-AR (dobutamine) challenges in conscious instrumented dogs; type: in vivo, dog
Method: In addition, the effects of MAVA (at 1.5 mg/kg PO, via gavage) on cardiac reserve were evaluated via acute β-AR challenges (dobutamime: 2, 5, and 10 ug/kg/min IV) in conscious fully-instrumented (LVPV group) dogs with normal cardiac function (n=8). These challenges were performed before/after dosing (+3-hour) in control- and MAVA-treated animals both under normal cardiac physiological conditions (n=4) and under (mild) concomitant cardio-depression induced via either selective β-AR blockade (+BB, metoprolol 0.5±0.1 mg/kg PO tid; n=4) or L-type Ca2+-channel blockade (+CCB, verapamil at 5±1 mg/kg PO tid; n=4); pharmacological blockades were established for 7 days prior to the MAVA treatment. Both peak and dose-responses were evaluated at steady state.
Throughout these experiments, analog signals were digitally acquired (1000 Hz) and recorded continuously with a data acquisition/analysis system (IOX; EMKA Technologies). Heart rate (HR), end-systolic (ESP) and end-diastolic pressures (EDP), as well as the peak rates of pressure rise/decline (dP/dtmax and dP/dtmin), the contractility index (CI: dP/dt/P at dP/dtmax), and the time-constant of myocardial relaxation (tau1/2, time for 50% decay from dP/dtmin) were derived from the LV pressure signal. Meanwhile, the end-systolic (ESV) and end-diastolic volumes (EDV) were measured from the LV volume signal derived from the implanted myocardial crystals. LV volumes were derived assuming a Teichholz model, and stroke volume (SV=EDV−ESV), ejection fraction (EF=SV/EDV), as well as cardiac output (CO=SV·HR) were calculated; in a subset of animals, SV and CO values were verified from data derived from the implanted aortic flow […]. […] The slopes of the preload-recruitable stroke work (PRSW; stroke work vs. EDV) and the end-systolic pressure-volume relationships (ESPVR; end-systolic elastance, Ees) were derived by software using linear models (IOX; EMKA Technologies), and were used as load-independent inotropic indices. Ventricular load was estimated by the effective arterial elastance (Ea=ESP/SV). […]

## CC(C)n1c(=O)cc(N[C@@H](C)c2ccccc2)[nH]c1=O [mavacamten, (S)-3-Isopropyl-6-((1-phenylethyl)amino)pyrimidine-2, 4(1H,3H)-dione]
[1]; 48-week period
  cardiac-related adverse events attributed to study drug: no cardiac-related adverse events (AEs) attributed to study drug
[1]; Change from Baseline to Week 48
  E/e′ lateral, mean: −3.4
[1]; Week 12
  E/e′ lateral, mean: 9.8
  IVS (interventricular septal thickness), mean: 16.0 mm
[1]; Week 12, listed as Mavacamten
  IVS (interventricular septal thickness), mean: 15.9 ± 2.7 mm
[1]; Week 24
  E/e′ lateral, mean: 10.2
  IVS (interventricular septal thickness), mean: 15.8 mm
[1]; Week 24, listed as Mavacamten
  IVS (interventricular septal thickness), mean: 15.8 ± 2.7 mm
[1]; Week 36
  E/e′ lateral, mean: 8.5
  IVS (interventricular septal thickness), mean: 15.4 mm
[1]; Week 36, listed as Mavacamten
  IVS (interventricular septal thickness), mean: 15.4 ± 2.7 mm
[1]; Week 48
  E/e′ lateral, mean: 9.1
  IVS (interventricular septal thickness), mean: 15 mm and 15.3 mm
  IVS (interventricular septal thickness), mean change from baseline: −1.5 mm
  LVEF, mean change from baseline: −1.8%
  NT-proBNP, median: 136.5 pg/mL
  patients who achieved a post-exercise LVOT gradient <30 mm Hg: Five
[1]; Week 48, listed as Mavacamten
  IVS (interventricular septal thickness), mean: 15.5 ± 2.0 mm
  IVS (interventricular septal thickness), mean change from baseline: −1.2 mm and −1.2 ± 2.3 mm
[1]; Week 60
  median NT-proBNP, change from baseline: -481 pg/mL
[1]; all patients at all timepoints
  LVEF maintained: above 50%
[1]; in 3 subjects, 7 mild, 1 moderate
  AEs considered potentially related to study drug: 8
[2]
  equivalent human plasma concentrations: 50 to 250 ng/mL
[3]; at any given dP/dtmax gain
  β-AR induced acceleration of tau: enhanced
[3]; dobutamine challenge, MAVA 1.5 mg/kg PO
  β-AR elevations in dP/dtmax and CI: blunted
